Like-named read-outs stand apart in the source and are kept apart here.
Experiments:
[1] = test system: MIA-PaCa-2 pancreatic cancer cell line (KRAS G12C); experiment: Cell proliferation assay (CellTiter 96 Aqueous One); format: cell-based; conditions: Homo sapiens; for IC50: MIA PaCa-2, MIA PaCa-2; for inhibition at 10 µM: MIA PaCa-2, read-out: % inh cell proliferation (10 μM) in MIA PaCa-2
How it was run: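 After overnight attachment, compounds are added (10 μM final or serial dilutions) and left 2–4 days, with viability then measured by MTS.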

[2] = biological target: T1, KRas G12D mutant (Homo sapiens, UniProt P01116, G12D); experiment: Ras GTP binding domain inhibition assay (labeled-GTP competition, cell-free)
T1 construct: made in house
How it was run: (§1)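 First, the His-tagged protein was captured overnight at 4° C on nickel wells. Second, compound was applied at 20 μM or as a dilution series for IC50 over 3 h. Third, 100 nM Cy3- or Cy5-GTP was added for 45 min. Finally, wells were washed and bound label quantified.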

[3] = biological target: T2, KRas G12C mutant (Homo sapiens, UniProt P01116, G12C); experiment: as above
T2 construct: made in house
How it was run: as §1

[4] = biological target: T3, KRas Q61H mutant (Homo sapiens, UniProt P01116, Q61H); experiment: as above
T3 construct: made in house
How it was run: as §1

[5] = biological target: KRas wild type (Homo sapiens, UniProt P01116); experiment: as above; design: made in house
How it was run: as §1

[6] = biological target: Rac-1 (Homo sapiens, UniProt P63000); experiment: as above; design: made in house
How it was run: as §1

[7] = biological target: Rho-A (Homo sapiens, UniProt P61586); experiment: as above; design: made in house
How it was run: as §1

[8] = with SOS, read-out: KRas G12D mutant + SOS: % inh.
[9] = without SOS, read-out: KRas G12D mutant: % inh.
[10] = with SOS, read-out: KRas G12C mutant + SOS: % inh.
[11] = without SOS, read-out: KRas G12C mutant: % inh.
[12] = with SOS, read-out: KRas Q61H mutant + SOS: % inh.
[13] = without SOS, read-out: KRas Q61H mutant: % inh.
[14] = with SOS, read-out: KRas wild type + SOS: % inh.
[15] = without SOS, read-out: KRas wild type: % inh.
[16] = with SOS, read-out: Rac-1 + SOS: % inh.
[17] = without SOS, read-out: Rac-1: % inh.
[18] = with SOS, read-out: Rho-A + SOS: % inh.
[19] = without SOS, read-out: Rho-A: % inh.

Compound	IC50 [1]	inhibition at 10 µM [1]	inhibition at 20 µM [2, 8]	inhibition at 20 µM [2, 9]	inhibition at 20 µM [3, 10]	inhibition at 20 µM [3, 11]	inhibition at 20 µM [4, 12]	inhibition at 20 µM [4, 13]	inhibition at 20 µM [5, 14]	inhibition at 20 µM [5, 15]	inhibition at 20 µM [6, 16]	inhibition at 20 µM [6, 17]	inhibition at 20 µM [7, 18]	inhibition at 20 µM [7, 19]	IC50 ([4]; with SOS)
CO[C@H]1CC[C@@H](Nc2nc(-c3ccccn3)nc3sc(-c4ccn(C(C)C)n4)c(C)c23)C1 (racemic) [Compound 69, Rac-6-(1-isopropyl-1H-pyrazol-3-yl)-N-((1R,3S)-3-methoxycyclopentyl)-5-methyl-2-(pyridine-2-yl)thieno[2,3-d]pyrimidin-4-amine]	5 to 10 µM	76 to 100%	51 to 75%	51 to 75%	51 to 75%	51 to 75%	76 to 100%	76 to 100%	51 to 75%	51 to 75%	26 to 50%	1 to 25%	51 to 75%	51 to 75%	–
COC1CCCN(c2nc(-c3ccccn3)nc3sc(-c4ccn(C(C)C)n4)c(C)c23)C1 (racemic) [Compound 70, Rac-6-(1-Isopropyl-1H-pyrazol-3-yl)-4-(3-methoxypiperidin-1-yl)-5-methyl-2-(pyridin-2-yl)thieno[2,3-d]pyrimidine]	5 to 10 µM	76 to 100%	26 to 50%	26 to 50%	26 to 50%	51 to 75%	26 to 50%	26 to 50%	26 to 50%	26 to 50%	26 to 50%	26 to 50%	51 to 75%	51 to 75%	–
COCC1CCN(c2nc(-c3ccccn3)nc3sc(-c4ccn(C(C)C)n4)c(C)c23)C1 (racemic) [Compound 71, Rac-6-(1-Isopropyl-1H-pyrazol-3-yl)-4-(3-(methoxymethyl)pyrrolidin-1-yl)-5-methyl-2-(pyridin-2-yl)thieno[2,3-d]pyrimidine]	5 to 10 µM	76 to 100%	1 to 25%	0%	26 to 50%	26 to 50%	51 to 75%	26 to 50%	26 to 50%	26 to 50%	–	0%	–	76 to 100%	–
COCC1CCN(c2nc(-c3nccn3C)nc3sc(-c4ccn(C(C)C)n4)c(-c4ccccc4)c23)C1 (racemic) [Compound 76, Rac-6-(1-isopropyl-1H-pyrazol-3-yl)-4-(3-(methoxymethyl)pyrrolidin-1-yl)-2-(1-methyl-1H-imidazol-2-yl)-5-phenylthieno[2,3-d]pyrimidine]	< 1 µM	76 to 100%	26 to 50%	51 to 75%	0%	1 to 25%	51 to 75%	26 to 50%	51 to 75%	51 to 75%	–	1 to 25%	–	26 to 50%	–
COC1CCCN(c2nc(-c3nccn3C)nc3sc(-c4ccn(C(C)C)n4)c(-c4ccccc4)c23)C1 (racemic) [Compound 77, Rac-6-(1-isopropyl-1H-pyrazol-3-yl)-4-(3-methoxypiperidin-1-yl)-2-(1-methyl-1H-imidazol-2-yl)-5-phenylthieno[2,3-d]pyrimidine]	5 to 10 µM	76 to 100%	26 to 50%	51 to 75%	0%	26 to 50%	26 to 50%	1 to 25%	26 to 50%	26 to 50%	–	1 to 25%	–	26 to 50%	–
CO[C@H]1CC[C@@H](Nc2nc(-c3nccn3C)nc3sc(-c4cc[nH]n4)c(-c4ccccc4)c23)C1 (racemic) [Example 1, Rac-N-((1R,3S)-3-methoxycyclopentyl)-2-(1-methyl-1H-imidazol-2-yl)-5-phenyl-6-(1H-pyrazol-3-yl)thieno[2,3-d]pyrimidin-4-amine]	> 10 µM	0%	0%	0%	1 to 25%	1 to 25%	1 to 25%	1 to 25%	1 to 25%	0%	1 to 25%	0%	0%	1 to 25%	> 10 µM
CO[C@H]1CC[C@@H](Nc2nc(-c3nccn3C)nc3sc(-c4ccn(C(C)C)n4)c(-c4ccccc4)c23)C1 [Compound 5, 6-(1-Isopropyl-1H-pyrazol-3-yl)-N-((1R,3S)-3-methoxycyclopentyl)-2-(1-methyl-1H-imidazol-2-yl)-5-phenylthieno[2,3-d]pyrimidin-4-amine]	< 1 µM	76 to 100%	51 to 75%	1 to 25%	76 to 100%	51 to 75%	76 to 100%	26 to 50%	76 to 100%	51 to 75%	26 to 50%	26 to 50%	51 to 75%	51 to 75%	1 to 4.99 µM
COCCn1ccnc1-c1nc(N[C@H]2C[C@@H](OC)C2)c2c(-c3ccccc3)c(-c3ccn(C)n3)sc2n1 [Compound 7, N-((1s,3s)-3-Methoxycyclobutyl)-2-(1-(2-methoxyethyl)-1H-imidazol-2-yl)-6-(1-methyl-1H-pyrazol-3-yl)-5-phenylthieno[2,3-d]pyrimidin-4-amine]	1 to 4.99 µM	76 to 100%	76 to 100%	51 to 75%	76 to 100%	76 to 100%	76 to 100%	76 to 100%	76 to 100%	76 to 100%	76 to 100%	76 to 100%	76 to 100%	76 to 100%	1 to 4.99 µM
COCCn1ccnc1-c1nc(N[C@H]2C[C@@H](OC)C2)c2ccsc2n1 [Compound 9, N-((1s,3s)-3-Methoxycyclobutyl)-2-(1-(2-methoxyethyl)-1H-imidazol-2-yl)thieno[2,3-d]pyrimidin-4-amine]	> 10 µM	1 to 25%	76 to 100%	51 to 75%	76 to 100%	76 to 100%	76 to 100%	76 to 100%	76 to 100%	76 to 100%	76 to 100%	76 to 100%	76 to 100%	76 to 100%	5 to 10 µM
NC(=O)c1nc(O)c2scc(-c3ccccn3)c2n1 [Compound 18, 4-Hydroxy-7-(pyridin-2-yl)thieno[3,2-d]pyrimidine-2-carboxamide]	> 10 µM	0%	26 to 50%	51 to 75%	26 to 50%	26 to 50%	26 to 50%	26 to 50%	1 to 25%	26 to 50%	26 to 50%	26 to 50%	26 to 50%	26 to 50%	> 10 µM
